# How the values were obtained:
# Experiment in all cases: Kinase selectivity screen
# Type in all cases: biochemical
# BTK = BTK (Homo sapiens, UniProt Q06187)
# Method: (§1) The substantially less demanding synthesis of ICL-CCIC-0019 compared with MN58B bears additional advantages. […] This consequently diminished intracellular PCho concentration, and importantly, the incorporation of [^3H]-choline into lipids (Figure 1D). […] To assess kinase specificity, ICL-CCIC-0019 was tested against a panel of 131 human kinases (Figure 1E and Supplementary Table S1). […] Inhibition greater than 20% was attained for insulin-like growth factor 1 (IGF-1R, 35 ± 7% inhibition), mitogen-activated protein kinase-activated protein kinase 3 (MAPKAP-K3, 33 ± 6%), extracellular signal regulated kinase 8 (ERK8, 31 ± 4%), ribosomal S6 kinase 1 (RSK1, 22 ± 6%), and v-erb-a erythroblastic leukemia viral oncogene homolog 4 (HER4, 21 ± 7%).
# CAMKKb = CAMKKb (Homo sapiens, UniProt Q96RR4)
# Method: as §1
# CDK9-Cyclin T1 = CDK9-Cyclin T1 (Homo sapiens, UniProt P50750); settings: CDK9-Cyclin T1, 10 μM
# Method: as §1
# CHK2 = CHK2 (Homo sapiens, UniProt O96017); settings: CHK2, 10 μM
# Method: as §1
# CK1δ = CK1δ (Homo sapiens, UniProt P48730)
# Method: as §1
# CK2 = CK2 (Homo sapiens, UniProt P68400); settings: CK2, 10 μM
# Method: as §1
# DYRK2 = DYRK2 (Homo sapiens, UniProt Q92630); settings: DYRK2, 10 μM
# Method: as §1
# EIF2AK3 = EIF2AK3 (Homo sapiens, UniProt Q9NZJ5); settings: EIF2AK3, 10 μM
# Method: as §1
# EPH-B2 = EPH-B2 (Homo sapiens, UniProt P29323); settings: EPH-B2, 10 μM
# Method: as §1
# FGF-R1 = FGF-R1 (Homo sapiens, UniProt P11362); settings: FGF-R1, 10 μM
# Method: as §1
# GCK = GCK (Homo sapiens, UniProt Q12851)
# Method: as §1
# GSK3b = GSK3b (Homo sapiens, UniProt P49841)
# Method: as §1
# HER4 = HER4 (Homo sapiens, UniProt Q15303); settings: HER4, 10 μM
# Method: as §1
# HIPK2 = HIPK2 (Homo sapiens, UniProt Q9H2X6); settings: HIPK2, 10 μM
# Method: as §1
# IGF-1R = IGF-1R (Homo sapiens, UniProt P08069)
# Method: as §1
# IRAK4 = IRAK4 (Homo sapiens, UniProt Q9NWZ3); settings: IRAK4, 10 μM
# Method: as §1
# JNK3 = JNK3 (Homo sapiens, UniProt P53779); settings: JNK3, 10 μM
# Method: as §1
# MAPKAP-K3 = MAPKAP-K3 (Homo sapiens, UniProt Q16644); settings: MAPKAP-K3, 10 μM
# Method: as §1
# MKK1 = MKK1 (Homo sapiens, UniProt Q02750); settings: MKK1, 10 μM
# Method: as §1
# MKK2 = MKK2 (Homo sapiens, UniProt P36507); settings: MKK2, 10 μM
# Method: as §1
# MNK1 = MNK1 (Homo sapiens, UniProt Q9BUB5); settings: MNK1, 10 μM
# Method: as §1
# MST2 = MST2 (Homo sapiens, UniProt Q13188); settings: MST2, 10 μM
# Method: as §1
# OSR1 = OSR1 (Homo sapiens, UniProt O95747); settings: OSR1, 10 μM
# Method: as §1
# PAK2 = PAK2 (Homo sapiens, UniProt Q13177); settings: PAK2, 10 μM
# Method: as §1
# PHK = PHK (Homo sapiens, UniProt Q16816)
# Method: as §1
# PKBa = PKBa (Homo sapiens, UniProt P31749)
# Method: as §1
# PKCγ = PKCγ (Homo sapiens, UniProt P05129)
# Method: as §1
# PKD1 = PKD1 (Homo sapiens, UniProt Q15139); settings: PKD1, 10 μM
# Method: as §1
# RIPK2 = RIPK2 (Homo sapiens, UniProt O43353); settings: RIPK2, 10 μM
# Method: as §1
# RSK2 = RSK2 (Homo sapiens, UniProt P51812); settings: RSK2, 10 μM
# Method: as §1
# SYK = SYK (Homo sapiens, UniProt P43405)
# Method: as §1
# TAK1-TAB1 = TAK1-TAB1 (Homo sapiens, UniProt O43318); settings: TAK1-TAB1, 10 μM
# Method: as §1
# TBK1 = TBK1 (Homo sapiens, UniProt Q9UHD2); settings: TBK1, 10 μM
# Method: as §1
# TIE2 = TIE2 (Homo sapiens, UniProt Q02763); settings: TIE2, 10 μM
# Method: as §1
# VEG-FR = VEG-FR (Homo sapiens, UniProt P17948)
# Method: as §1
# MAPKAP-K3, sequence (Q16644 whole entry): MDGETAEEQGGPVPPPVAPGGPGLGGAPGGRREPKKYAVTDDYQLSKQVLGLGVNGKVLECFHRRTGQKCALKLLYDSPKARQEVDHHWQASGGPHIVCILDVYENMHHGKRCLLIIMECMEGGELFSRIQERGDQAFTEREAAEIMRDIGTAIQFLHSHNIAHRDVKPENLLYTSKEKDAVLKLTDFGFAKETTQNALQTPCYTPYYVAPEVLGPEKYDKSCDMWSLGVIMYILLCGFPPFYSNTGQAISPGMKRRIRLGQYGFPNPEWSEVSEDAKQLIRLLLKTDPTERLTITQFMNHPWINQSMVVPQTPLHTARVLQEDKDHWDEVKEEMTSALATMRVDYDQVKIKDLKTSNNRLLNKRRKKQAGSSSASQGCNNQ
# HER4, sequence (Q15303 26-1308): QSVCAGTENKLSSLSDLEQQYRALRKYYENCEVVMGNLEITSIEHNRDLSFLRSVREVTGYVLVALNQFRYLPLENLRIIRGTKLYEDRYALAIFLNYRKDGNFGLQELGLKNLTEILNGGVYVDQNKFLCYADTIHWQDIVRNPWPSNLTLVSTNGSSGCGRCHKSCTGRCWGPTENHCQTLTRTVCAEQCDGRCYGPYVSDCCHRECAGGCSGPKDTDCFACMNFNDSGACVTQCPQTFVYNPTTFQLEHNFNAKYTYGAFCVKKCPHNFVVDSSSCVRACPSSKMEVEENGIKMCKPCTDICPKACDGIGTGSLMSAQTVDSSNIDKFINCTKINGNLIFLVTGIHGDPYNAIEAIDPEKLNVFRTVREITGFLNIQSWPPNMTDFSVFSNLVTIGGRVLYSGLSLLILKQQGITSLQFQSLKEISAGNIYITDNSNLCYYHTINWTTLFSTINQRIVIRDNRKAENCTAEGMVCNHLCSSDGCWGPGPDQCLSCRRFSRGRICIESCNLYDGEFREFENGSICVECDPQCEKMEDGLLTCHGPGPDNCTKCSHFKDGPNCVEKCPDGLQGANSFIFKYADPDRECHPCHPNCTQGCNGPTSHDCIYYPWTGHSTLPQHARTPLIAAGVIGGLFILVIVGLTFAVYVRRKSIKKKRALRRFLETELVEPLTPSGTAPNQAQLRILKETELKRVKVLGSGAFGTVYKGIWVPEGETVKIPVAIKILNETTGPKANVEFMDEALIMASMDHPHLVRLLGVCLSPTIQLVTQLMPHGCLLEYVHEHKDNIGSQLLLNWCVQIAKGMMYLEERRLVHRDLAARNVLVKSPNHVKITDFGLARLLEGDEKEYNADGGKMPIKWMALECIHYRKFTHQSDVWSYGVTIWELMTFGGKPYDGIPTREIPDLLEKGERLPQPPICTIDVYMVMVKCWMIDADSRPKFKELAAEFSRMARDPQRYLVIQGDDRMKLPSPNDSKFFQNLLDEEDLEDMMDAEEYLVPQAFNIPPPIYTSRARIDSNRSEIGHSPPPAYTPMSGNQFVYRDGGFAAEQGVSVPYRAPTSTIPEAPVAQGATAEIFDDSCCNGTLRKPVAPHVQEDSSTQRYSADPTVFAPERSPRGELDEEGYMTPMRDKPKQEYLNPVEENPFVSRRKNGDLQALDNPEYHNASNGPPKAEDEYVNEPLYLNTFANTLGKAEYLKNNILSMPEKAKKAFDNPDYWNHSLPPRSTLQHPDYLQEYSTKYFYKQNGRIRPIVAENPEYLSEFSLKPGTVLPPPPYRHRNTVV
# IGF-1R, sequence (P08069 31-1367): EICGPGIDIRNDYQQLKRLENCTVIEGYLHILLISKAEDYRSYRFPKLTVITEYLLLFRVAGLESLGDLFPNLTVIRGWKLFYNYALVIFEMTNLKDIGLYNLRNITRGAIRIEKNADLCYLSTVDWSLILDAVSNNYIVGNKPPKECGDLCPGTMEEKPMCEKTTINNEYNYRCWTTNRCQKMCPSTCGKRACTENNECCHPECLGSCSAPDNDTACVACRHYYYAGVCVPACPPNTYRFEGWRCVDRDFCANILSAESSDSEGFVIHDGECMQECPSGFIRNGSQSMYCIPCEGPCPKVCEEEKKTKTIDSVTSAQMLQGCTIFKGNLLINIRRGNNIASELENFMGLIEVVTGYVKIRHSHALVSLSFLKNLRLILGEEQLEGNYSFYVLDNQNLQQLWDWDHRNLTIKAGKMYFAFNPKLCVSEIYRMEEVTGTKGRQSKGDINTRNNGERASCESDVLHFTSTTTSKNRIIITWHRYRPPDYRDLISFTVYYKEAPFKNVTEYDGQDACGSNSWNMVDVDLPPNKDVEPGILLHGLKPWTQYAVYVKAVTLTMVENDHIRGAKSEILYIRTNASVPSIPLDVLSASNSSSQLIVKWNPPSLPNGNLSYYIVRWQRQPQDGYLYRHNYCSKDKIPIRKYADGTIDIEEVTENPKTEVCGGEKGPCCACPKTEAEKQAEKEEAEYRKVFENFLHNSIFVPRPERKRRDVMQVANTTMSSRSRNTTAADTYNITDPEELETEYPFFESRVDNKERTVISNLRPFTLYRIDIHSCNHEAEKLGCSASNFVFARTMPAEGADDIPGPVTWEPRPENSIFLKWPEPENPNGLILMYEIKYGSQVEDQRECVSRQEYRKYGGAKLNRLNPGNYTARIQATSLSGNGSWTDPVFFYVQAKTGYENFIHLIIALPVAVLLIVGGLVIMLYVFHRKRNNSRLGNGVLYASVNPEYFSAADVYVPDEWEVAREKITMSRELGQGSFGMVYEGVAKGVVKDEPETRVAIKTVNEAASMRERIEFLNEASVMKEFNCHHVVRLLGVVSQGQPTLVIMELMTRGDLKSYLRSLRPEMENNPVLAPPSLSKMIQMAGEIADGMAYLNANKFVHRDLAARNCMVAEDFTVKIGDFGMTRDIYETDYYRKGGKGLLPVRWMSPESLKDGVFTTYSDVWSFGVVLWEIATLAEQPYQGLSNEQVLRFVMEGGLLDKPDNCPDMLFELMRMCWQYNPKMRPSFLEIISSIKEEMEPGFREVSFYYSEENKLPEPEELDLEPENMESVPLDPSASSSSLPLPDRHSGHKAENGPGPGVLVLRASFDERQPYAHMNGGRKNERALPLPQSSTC
# CAMKKb, sequence (Q96RR4 whole entry): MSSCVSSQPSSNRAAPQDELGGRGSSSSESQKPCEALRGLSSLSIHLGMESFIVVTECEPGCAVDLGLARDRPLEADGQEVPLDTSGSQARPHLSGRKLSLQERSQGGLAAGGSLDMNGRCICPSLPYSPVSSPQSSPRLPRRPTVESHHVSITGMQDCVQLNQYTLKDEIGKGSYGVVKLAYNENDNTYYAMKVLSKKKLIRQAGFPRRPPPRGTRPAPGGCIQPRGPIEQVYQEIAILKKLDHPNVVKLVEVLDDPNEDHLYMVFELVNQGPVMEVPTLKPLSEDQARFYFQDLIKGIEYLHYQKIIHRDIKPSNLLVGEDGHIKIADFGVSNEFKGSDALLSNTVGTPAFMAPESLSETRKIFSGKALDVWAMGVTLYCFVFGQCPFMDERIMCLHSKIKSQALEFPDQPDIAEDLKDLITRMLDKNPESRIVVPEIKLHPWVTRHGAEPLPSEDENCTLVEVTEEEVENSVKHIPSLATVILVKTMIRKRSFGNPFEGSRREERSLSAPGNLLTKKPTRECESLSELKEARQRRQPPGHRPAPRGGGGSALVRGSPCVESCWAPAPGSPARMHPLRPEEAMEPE
# DYRK2, sequence (Q92630 whole entry): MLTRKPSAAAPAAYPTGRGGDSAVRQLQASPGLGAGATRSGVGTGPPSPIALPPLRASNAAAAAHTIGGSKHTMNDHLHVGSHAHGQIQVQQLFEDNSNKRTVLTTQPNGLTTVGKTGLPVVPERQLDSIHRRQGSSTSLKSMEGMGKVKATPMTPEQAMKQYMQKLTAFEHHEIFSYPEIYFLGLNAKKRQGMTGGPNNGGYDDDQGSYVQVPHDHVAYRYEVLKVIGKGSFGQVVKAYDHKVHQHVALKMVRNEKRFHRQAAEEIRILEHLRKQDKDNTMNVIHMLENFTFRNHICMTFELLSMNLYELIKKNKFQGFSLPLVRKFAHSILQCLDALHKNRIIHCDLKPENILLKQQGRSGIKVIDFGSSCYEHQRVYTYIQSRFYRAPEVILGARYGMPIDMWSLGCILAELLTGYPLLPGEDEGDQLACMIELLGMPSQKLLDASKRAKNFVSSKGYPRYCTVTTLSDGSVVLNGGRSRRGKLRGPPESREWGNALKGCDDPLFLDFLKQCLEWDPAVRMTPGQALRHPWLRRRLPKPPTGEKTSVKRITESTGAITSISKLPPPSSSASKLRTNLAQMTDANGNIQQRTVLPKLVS
# OSR1, sequence (O95747 whole entry): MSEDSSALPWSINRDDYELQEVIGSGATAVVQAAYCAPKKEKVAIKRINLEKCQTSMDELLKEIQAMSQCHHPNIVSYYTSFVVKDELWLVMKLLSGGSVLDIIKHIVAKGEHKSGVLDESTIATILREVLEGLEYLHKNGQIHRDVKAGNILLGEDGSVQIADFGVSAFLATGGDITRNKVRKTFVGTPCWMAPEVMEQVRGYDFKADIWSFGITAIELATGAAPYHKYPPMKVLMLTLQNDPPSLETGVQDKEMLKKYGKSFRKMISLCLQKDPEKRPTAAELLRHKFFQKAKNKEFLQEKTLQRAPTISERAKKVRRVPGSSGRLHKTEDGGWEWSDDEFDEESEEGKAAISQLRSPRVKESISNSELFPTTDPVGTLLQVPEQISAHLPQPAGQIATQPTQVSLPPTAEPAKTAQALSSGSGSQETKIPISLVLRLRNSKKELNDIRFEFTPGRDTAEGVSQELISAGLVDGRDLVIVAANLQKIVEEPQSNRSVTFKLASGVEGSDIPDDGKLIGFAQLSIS
compound,measurement,setting,value
CN(C)c1cc[n+](CCCCCCCCCCCC[n+]2ccc(N(C)C)cc2)cc1 [ICL-CCIC-0019],remaining activity at 10 µM,BTK,131%
same,remaining activity at 10 µM,CAMKKb,91%
same,remaining activity at 10 µM,CDK9-Cyclin T1,95%
same,remaining activity at 10 µM,CHK2,90%
same,remaining activity at 10 µM,CK1δ,100%
same,remaining activity at 10 µM,CK2,86%
same,remaining activity at 10 µM,DYRK2,96%
same,remaining activity at 10 µM,EIF2AK3,97%
same,remaining activity at 10 µM,EPH-B2,90%
same,remaining activity at 10 µM,FGF-R1,92%
same,remaining activity at 10 µM,GCK,89%
same,remaining activity at 10 µM,GSK3b,94%
same,inhibition at 10 µM,HER4,21 ± 7%
same,remaining activity at 10 µM,HER4,79%
same,remaining activity at 10 µM,HIPK2,104%
same,inhibition at 10 µM,IGF-1R,35 ± 7%
same,remaining activity at 10 µM,IGF-1R,65%
same,remaining activity at 10 µM,IRAK4,83%
same,remaining activity at 10 µM,JNK3,92%
same,inhibition at 10 µM,MAPKAP-K3,33 ± 6%
same,remaining activity at 10 µM,MAPKAP-K3,67%
same,remaining activity at 10 µM,MKK1,82%
same,remaining activity at 10 µM,MKK2,95%
same,remaining activity at 10 µM,MNK1,101%
same,remaining activity at 10 µM,MST2,89%
same,remaining activity at 10 µM,OSR1,99%
same,remaining activity at 10 µM,PAK2,107%
same,remaining activity at 10 µM,PHK,94%
same,remaining activity at 10 µM,PKBa,101%
same,remaining activity at 10 µM,PKCγ,93%
same,remaining activity at 10 µM,PKD1,105%
same,remaining activity at 10 µM,RIPK2,102%
same,remaining activity at 10 µM,RSK2,105%
same,remaining activity at 10 µM,SYK,92%
same,remaining activity at 10 µM,TAK1-TAB1,97%
same,remaining activity at 10 µM,TBK1,108%
same,remaining activity at 10 µM,TIE2,89%
same,remaining activity at 10 µM,VEG-FR,80%

# Source: PMC5095062, “The novel choline kinase inhibitor ICL-CCIC-0019 reprograms cellular metabolism and inhibits cancer cell growth” (Oncotarget, 2016)
